pEC50: −log10 of the molar value. Like-named read-outs stand apart in the source and are kept apart here.
Legend:
[1] = system: stable HCV 1b RLuc replicon cells (dicistronic genotype 1b Con1 replicon); assay: Renilla luciferase HCV replicon reporter assay, genotype 1b; format: cell-based; details: Hepatitis C virus, 72 h, stable 1b Con1 RLuc replicon cells, 72 hours; read-out: 1b
In short: (§1)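 Cells carrying the stable or transiently transfected (Huh-Lunet) dicistronic RLuc replicons received 3-fold serial compound dilutions from 10 mM DMSO stocks. After 72 h, cells were lysed and Renilla luciferase read. DMSO served as the no-inhibition control and ITMN-191 above 100×EC50 as the positive control; EC50 by non-linear regression.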

[2] = system: stable HCV 1a RLuc replicon cells (dicistronic genotype 1a H77 replicon); assay: Renilla luciferase HCV replicon reporter assay, genotype 1a; format: cell-based; details: Hepatitis C virus, 72 h, stable 1a H77 RLuc replicon cells
In short: as §1

[3] = system: Q30R in genotype 1a NS5A (1a Pi-Rluc replicon, Huh-7-derived cured-51 cells); assay: Replicon assay against resistance mutant 1a Q30R; format: cell-based, HCV; details: Hepatitis C virus; for pEC50: read-out: 1a Q30R; for EC50: read-out: 1a Q30R (nM)
Method: Antiviral potency (EC50) was determined using a Renilla luciferase (RLuc)-based HCV replicon reporter assay. To perform the assay for genotype 1 and 2a JFH-1, stable HCV 1a RLuc replicon cells (harboring a dicistronic genotype 1a H77 replicon that encodes a RLuc reporter), stable HCV 1b RLuc replicon cells (harboring a dicistronic genotype 1b Con1 replicon that encodes a RLuc reporter), or stable HCV 2a JFH-1 Rluc replicon cells (harboring a dicistronic genotype 2a JFH-1 replicon that encodes a RLuc reporter; with L31 present in NS5A) were dispensed into 384-well plates for EC50 assays. To perform the assay for genotype 2a (with M31 present in NS5A) or 2b, NS5A chimeric genotype 2a JFH-1 replicons that encodes a RLuc-Neo reporter and either genotype 2a J6 strain NS5A gene or genotype 2b MD2b-1 strain NS5A gene (both with M31 present) respectively, were either transiently transfected (t) into Huh-Lunet cells or were established as stably replicating replicon cells (s) is provided. Either cells were dispensed into 384-well plates for EC50 assays. To perform the assay for genotype 3 and 4, NS5A chimeric genotype 1b Con1 replicons that encodes a Pi-RLuc reporter and either genotype 3a S52 strain NS5A gene or genotype 4a ED43 strain NS5A gene respectively, were transiently transfected (t) into Huh-Lunet cells, which were subsequently dispensed into 384-well plates. Compounds were dissolved in DMSO at a concentration of 10 mM and diluted in DMSO either manually or using an automated pipeting instrument. Serially 3-fold diluted compounds were either manually mixed with cell culture media and added to the seeded cells or directly added to the cells using an automated instrument. DMSO was used as a negative (solvent; no inhibition) control, and the protease inhibitor ITMN-191 was included at a concentration>100×EC50 as a positive control. 72 hours later, cells were lysed and Renilla luciferase activity quantified as recommended by the manufacturer (Promega-Madison, Wis.). Non-linear regression was performed to calculate EC50 values.
To determine the antiviral potency (EC50) against resistance mutants, resistance mutations, including M28T, Q30R, Q30H, Q30E, L31M, Y93C, Y93H, and Y93N in genotype 1a NS5A, Y93H and L31V/Y93H in genotype 1b NS5A, and Y93H for in genotype 3a NS5A, were introduced individually into either 1a Pi-Rluc or 1b Pi-Rluc replicons by site directed mutagenesis. Replicon RNA of each resistant mutant was transiently transfected into Huh-7-derived cured-51 cells and antiviral potency was determined on these transfected cells as described above.

[4] = system: stable HCV 2a JFH-1 Rluc replicon cells (L31 present in NS5A); assay: Renilla luciferase HCV replicon reporter assay, genotype 2a JFH-1; format: cell-based; details: Hepatitis C virus; for EC50: read-out: 2a JFH (nM), genotype 2a JFH-1 replicon (L31 in NS5A), stable cells; for pEC50: read-out: 2a JFH, stable 2a JFH-1 Rluc replicon cells, L31 in NS5A, activity range
In short: as §1

[5] = system: NS5A chimeric genotype 2a JFH-1 replicon with genotype 2a J6 strain NS5A gene (M31 present); assay: Replicon assay, genotype 2a J6 NS5A chimera; format: cell-based, HCV; details: Hepatitis C virus; for EC50: read-out: 2a J6 (t) (nM), genotype 2a J6 NS5A chimeric replicon (M31), transiently transfected (t) into Huh-Lunet cells; for pEC50: read-out: 2a J6 (t), transiently transfected (t) into Huh-Lunet cells, activity range
In short: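 First, 3-fold serial dilutions of compound went onto replicon cells, DMSO serving as no-inhibition control and ITMN-191 at >100×EC50 as positive control. Next came 72 h incubation, lysis and Renilla luciferase measurement. Finally, EC50 was calculated by non-linear regression; replicons covered genotypes 1a H77, 1b Con1, 2a JFH-1 (L31) and J6-NS5A chimera (M31).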

[6] = system: NS5A chimeric genotype 2a JFH-1 replicon with genotype 2b MD2b-1 strain NS5A gene (M31 present); assay: Replicon assay, genotype 2b NS5A chimera; format: cell-based, HCV; details: Hepatitis C virus; for pEC50: activity range
In short: as §1

[7] = system: NS5A chimeric genotype 1b Con1 replicon with genotype 3a S52 strain NS5A gene; assay: Replicon assay, genotype 3a NS5A chimera; format: cell-based, HCV; details: Hepatitis C virus; for EC50: read-out: 3a (s) (nM), genotype 3a NS5A chimeric replicon, stable replicon cells (s); for pEC50: read-out: 3a (s), (s), activity range
[8] = system: NS5A chimeric genotype 1b Con1 replicon with genotype 4a ED43 strain NS5A gene; assay: Replicon assay, genotype 4a NS5A chimera; format: cell-based, HCV; details: Hepatitis C virus; for EC50: read-out: 4a (s) (nM), genotype 4a NS5A chimeric replicon, stable replicon cells (s); for pEC50: read-out: 4a (s), (s), activity range
[9] = 2BS, read-out: 2b (s), stably replicating replicon cells (s)
[10] = read-out: 2b (s) (nM), genotype 2b MD2b-1 NS5A chimeric replicon (M31), stably replicating replicon cells (s)

**Q.** COC(=O)N[C@H](C(=O)N1[C@@H](C)CC[C@H]1c1ncc(-c2ccc3c(c2)COc2cc4c(ccc5nc([C@@H]6CC[C@H](C)N6C(=O)[C@@H](NC(=O)OC)[C@@H](C)OC(C)(C)C)[nH]c54)cc2-3)[nH]1)C(C)C [FG, Methyl {(2S,3R)-3-tert-butoxy-1-[(2S,5S)-2-(9-{2-[(2S,5S)-1-{(2S)-2-[(methoxycarbonyl)amino]-3-methylbutanoyl}-5-methylpyrrolidin-2-yl]-1H-imidazol-5-yl}-1,11-dihydroisochromeno[4′,3′:6,7]naphtho[1,2-d]imidazol-2-yl)-5-methylpyrrolidin-1-yl]-1-oxobutan-2-yl}carbamate] was tested. Which pEC50 [1] did it give?
**A.** Its pEC50 is 10.40.

**Q.** What about the pEC50 [2] of the same compound?
**A.** Its pEC50 is 10.62.

**Q.** And the pEC50 ([2]; activity range)?
**A.** Its pEC50 is greater than 10.00.

**Q.** And the pEC50 [3]?
**A.** Its pEC50 is 9.00 to 10.00.

**Q.** What about the EC50 [3] of the same compound?
**A.** Its EC50 is 0.577 nM.

**Q.** What about the EC50 [4] of the same compound?
**A.** The EC50 was 0.047 nM.

**Q.** And the pEC50 [4]?
**A.** The pEC50 was greater than 10.00.

**Q.** What about the EC50 [5] of the same compound?
**A.** The EC50 was 1.45 nM.

**Q.** What about the pEC50 [5] of the same compound?
**A.** The pEC50 was 7.36 to 9.00.

**Q.** And the pEC50 [6, 9]?
**A.** Its pEC50 is 7.36 to 9.00.

**Q.** And the EC50 [6, 10]?
**A.** The EC50 was 1.53 nM.

**Q.** And the EC50 [7]?
**A.** The EC50 was 0.298 nM.

**Q.** What about the pEC50 [7] of the same compound?
**A.** Its pEC50 is 9.00 to 10.00.

**Q.** And the EC50 [8]?
**A.** Its EC50 is 0.044 nM.

**Q.** And the pEC50 [8]?
**A.** The pEC50 was greater than 10.00.

**Q.** Which results are given for COC(=O)N[C@H](C(=O)N1[C@@H](C)CC[C@H]1c1ncc(-c2ccc3c(c2)COc2cc4c(ccc5nc([C@@H]6CC[C@H](C)N6C(=O)[C@@H](NC(=O)OC)[C@H](C)OC)[nH]c54)cc2-3)[nH]1)C(C)C [FK, Methyl [(2S)-1-{(2S,5S)-2-[5-(2-{(2S,5S)-1-[N-(methoxycarbonyl)-O-methyl-L-allothreonyl]-5-methylpyrrolidin-2-yl}-1,11-dihydroisochromeno[4′,3′:6,7]naphtho[1,2-d]imidazol-9-yl)-1H-imidazol-2-yl]-5-methylpyrrolidin-1-yl}-3-methyl-1-oxobutan-2-yl]carbamate]?
**A.** pEC50 [1]: 10.43; pEC50 [2]: 10.62; pEC50 ([2]; activity range): > 10.00; pEC50 [3]: 9.00 to 10.00; EC50 [3]: 0.498 nM; EC50 [4]: 0.038 nM; pEC50 [4]: > 10.00; EC50 [5]: 0.4 nM; pEC50 [5]: 9.00 to 10.00; pEC50 [6, 9]: 9.00 to 10.00; EC50 [6, 10]: 0.476 nM; EC50 [7]: 0.137 nM; pEC50 [7]: 9.00 to 10.00; EC50 [8]: 0.018 nM; pEC50 [8]: > 10.00

**Q.** How did the pEC50 [1] turn out when CC[C@H](C)[C@H](NC(=O)OC)C(=O)N1[C@@H](C)CC[C@H]1c1ncc(-c2ccc3c(c2)COc2cc4c(ccc5nc([C@@H]6CC[C@H](C)N6C(=O)[C@@H](NC(=O)OC)C6CCOCC6)[nH]c54)cc2-3)[nH]1 [GG, Methyl [(2S,3S)-1-{(2S,5S)-2-[5-(2-{(2S,5S)-1-[(2S)-2-[(methoxycarbonyl)amino]-2-(tetrahydro-2H-pyran-4-yl)acetyl]-5-methylpyrrolidin-2-yl}-1,11-dihydroisochromeno[4′,3′:6,7]naphtho[1,2-d]imidazol-9-yl)-1H-imidazol-2-yl]-5-methylpyrrolidin-1-yl}-3-methyl-1-oxopentan-2-yl]carbamate] was run?
**A.** Its pEC50 is 10.66.

**Q.** What about the pEC50 [2] of the same compound?
**A.** The pEC50 was 10.82.

**Q.** And the pEC50 ([2]; activity range)?
**A.** The pEC50 was greater than 10.00.

**Q.** And the pEC50 [3]?
**A.** The pEC50 was greater than 10.00.

**Q.** What about the EC50 [3] of the same compound?
**A.** The EC50 was 0.032 nM.

**Q.** And the EC50 [4]?
**A.** Its EC50 is 0.02 nM.

**Q.** And the pEC50 [4]?
**A.** The pEC50 was greater than 10.00.

**Q.** And the pEC50 [6, 9]?
**A.** Its pEC50 is greater than 10.00.

**Q.** What about the EC50 [6, 10] of the same compound?
**A.** Its EC50 is 0.083 nM.

**Q.** What about the EC50 ([6]; read-out: 2b (t) (nM), genotype 2b MD2b-1 NS5A chimeric replicon (M31), transiently transfected (t)) of the same compound?
**A.** Its EC50 is 0.044 nM.

**Q.** And the pEC50 ([6]; read-out: 2b (t), transiently transfected (t) into Huh-Lunet cells)?
**A.** The pEC50 was greater than 10.00.

**Q.** What about the EC50 [7] of the same compound?
**A.** Its EC50 is 0.038 nM.

**Q.** And the pEC50 [7]?
**A.** Its pEC50 is greater than 10.00.

**Q.** What about the EC50 [8] of the same compound?
**A.** The EC50 was 0.013 nM.

**Q.** And the pEC50 [8]?
**A.** The pEC50 was greater than 10.00.
